Test results published in US8618119B2, “Fused cyanopyridines and the use thereof” (Bayer Intellectual Property GmbH, priority 2007, dated 2013).

Assays:
Format in all cases: cell-based
adenosine A1 receptor = target: T1, adenosine A1 receptor (Homo sapiens, UniProt P30542); assay: Indirect determination of adenosine agonism by way of gene expression (luciferase reporter), A1 cells; details: CHO cells stably transfected with A1 receptor cDNA; 1 μM forskolin; 50% inhibition of luciferase answer
T1 construct: expressed in transfected cells; host or cells: CHO (Chinese Hamster Ovary)
T1 sequence (P30542 1-326): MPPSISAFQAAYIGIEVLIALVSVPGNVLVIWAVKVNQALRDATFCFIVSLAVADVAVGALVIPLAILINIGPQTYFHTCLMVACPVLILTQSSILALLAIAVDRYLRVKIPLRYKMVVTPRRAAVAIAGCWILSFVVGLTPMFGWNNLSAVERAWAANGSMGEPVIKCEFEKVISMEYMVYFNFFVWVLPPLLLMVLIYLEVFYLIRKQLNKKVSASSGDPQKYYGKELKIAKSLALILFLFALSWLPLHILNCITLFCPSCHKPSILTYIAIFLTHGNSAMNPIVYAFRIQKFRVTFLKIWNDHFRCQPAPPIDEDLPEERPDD
Text: (§1) B-1. Indirect Determination of the Adenosine Agonism by Way of Gene Expression
(§2) Cells of the CHO (Chinese Hamster Ovary) permanent line are transfected stably with the cDNA for the adenosine receptor subtypes A1, A2a and A2b. The adenosine A1 receptors are coupled to the adenylate cyclase by way of Gi proteins, while the adenosine A2a and A2b receptors are coupled by way of Gs proteins. In correspondence with this, the formation of cAMP in the cell is inhibited or stimulated, respectively. After that, expression of the luciferase is modulated by way of a cAMP-dependent promoter. The luciferase test is optimized, with the aim of high sensitivity and reproducibility, low variance and good suitability for implementation on a robot system, by varying several test parameters, such as cell density, duration of the growth phase and the test incubation, forskolin concentration and medium composition. The following test protocol is used for pharmacologically characterizing cells and for the robot-assisted substance screening:
(§3) The stock cultures are grown, at 37° C. and under 5% CO2, in DMEM/F12 medium containing 10% FCS (fetal calf serum) and in each case split 1:10 after 2-3 days. The test cultures are seeded in 384-well plates with 2000 cells per well and grown at 37° C. for approx. 48 hours. The medium is then replaced with a physiological sodium chloride solution (130 mM sodium chloride, 5 mM potassium chloride, 2 mM calcium chloride, 20 mM HEPES, 1 mM magnesium chloride hexahydrate, 5 mM sodium bicarbonate, pH 7.4). The substances to be tested, which are dissolved in DMSO, are pipetted into the test cultures (maximum final concentration of DMSO in the test mixture: 0.5%) in a dilution series of from 5×10^−11M to 3×10^−6M (final concentration). 10 minutes later, forskolin is added to the A1 cells and all the cultures are subsequently incubated at 37° C. for four hours. After that, 35 μl of a solution which is composed of 50% lysis reagent (30 mM disodium hydrogenphosphate, 10% glycerol, 3% TritonX100, 25 mM TrisHCl, 2 mM dithiotreitol (DTT), pH 7.8) and 50% luciferase substrate solution (2.5 mM ATP, 0.5 mM luciferin, 0.1 mM coenzyme A, 10 mM tricine, 1.35 mM magnesium sulfate, 15 mM DTT, pH 7.8) are added to the test cultures, which are shaken for approx. 1 minute and the luciferase activity is measured using a camera system. The EC50 values are determined, i.e., the concentrations at which 50% of the luciferase answer is inhibited in the case of the A1 cell, and, respectively, 50% of the maximum stimulation with the corresponding substance is achieved in the case of the A2b and A2a cells. […] Pharmacol., 357 (1998), 1-9).
(§4) Table 1 below lists the EC50 values of representative working examples for the receptor stimulation on adenosine A1, A2a and A2b receptor subtypes: […]

adenosine A2a receptor = target: T2, adenosine A2a receptor (Homo sapiens, UniProt P29274); assay: Indirect determination of adenosine agonism by way of gene expression (luciferase reporter), A2a cells; details: CHO cells stably transfected with A2a receptor cDNA; 50% of maximum stimulation
T2 construct: expressed in transfected cells; host or cells: CHO (Chinese Hamster Ovary)
T2 sequence (P29274 whole entry): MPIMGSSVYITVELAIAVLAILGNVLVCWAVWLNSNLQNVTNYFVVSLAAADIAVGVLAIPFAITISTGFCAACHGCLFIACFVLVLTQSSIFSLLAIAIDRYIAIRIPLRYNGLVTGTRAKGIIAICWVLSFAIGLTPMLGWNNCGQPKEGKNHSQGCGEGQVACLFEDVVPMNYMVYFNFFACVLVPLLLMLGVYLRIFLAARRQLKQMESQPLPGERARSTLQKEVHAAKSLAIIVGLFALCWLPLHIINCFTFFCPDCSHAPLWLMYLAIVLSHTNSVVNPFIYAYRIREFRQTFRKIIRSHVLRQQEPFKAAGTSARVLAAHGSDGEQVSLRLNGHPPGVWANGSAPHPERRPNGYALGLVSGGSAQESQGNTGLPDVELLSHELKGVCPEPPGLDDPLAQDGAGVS
Text: as §1, §2, §3, §4

adenosine A2b receptor = target: T3, adenosine A2b receptor (Homo sapiens, UniProt P29275); assay: Indirect determination of adenosine agonism by way of gene expression (luciferase reporter), A2b cells; details: CHO cells stably transfected with A2b receptor cDNA; 50% of maximum stimulation
T3 construct: expressed in transfected cells; host or cells: CHO (Chinese Hamster Ovary)
T3 sequence (P29275 1-332): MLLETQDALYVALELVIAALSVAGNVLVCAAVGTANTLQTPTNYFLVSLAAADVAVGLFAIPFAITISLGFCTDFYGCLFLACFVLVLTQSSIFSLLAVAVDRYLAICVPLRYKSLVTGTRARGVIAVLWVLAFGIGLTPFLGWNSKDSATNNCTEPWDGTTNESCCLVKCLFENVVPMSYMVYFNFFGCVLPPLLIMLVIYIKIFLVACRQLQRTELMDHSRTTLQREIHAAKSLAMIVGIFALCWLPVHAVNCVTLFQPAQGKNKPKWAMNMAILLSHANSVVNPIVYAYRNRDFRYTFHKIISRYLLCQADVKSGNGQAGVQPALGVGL
Text: as §1, §2, §3, §4

| EC50 (adenosine A1 receptor) | EC50 (adenosine A2a receptor) | EC50 (adenosine A2b receptor) | SMILES |
| --- | --- | --- | --- |
| 7.9 nM | > 3000 nM | 207 nM | N#Cc1c(SCc2csc(-c3ccc(Cl)cc3)n2)nc2c(c1-c1ccc(OCCO)cc1)C(=O)CCC2 [Example 2, 2-({[2-(4-Chlorophenyl)-1,3-thiazol-4-yl]methyl}thio)-4-[4-(2-hydroxyethoxy)phenyl]-5-oxo-5,6,7,8-tetrahydroquinoline-3-carbonitrile] |
| 2.6 nM | > 3000 nM | 66 nM | N#Cc1c(SCc2csc(-c3ccc(Cl)cc3)n2)nc2c(c1-c1ccc(OC[C@@H](O)CO)cc1)C(=O)CCC2 [Example 3, 2-({[2-(4-Chlorophenyl)-1,3-thiazol-4-yl]methyl}thio)-4-(4-{[(2S)-2,3-dihydroxypropyl]oxy}-phenyl)-5-oxo-5,6,7,8-tetrahydroquinoline-3-carbonitrile] |
| < 0.04 nM | 68 nM | 38 nM | Cc1nc(N)c2c(-c3ccc(OCCO)cc3)c(C#N)c(SCc3csc(-c4ccc(Cl)cc4)n3)nc2n1 [Example 9, 4-Amino-7-({[2-(4-chlorophenyl)-1,3-thiazol-4-yl]methyl}sulfanyl)-5-[4-(2-hydroxyethoxy)phenyl]-2-methylpyrido[2,3-d]pyrimidine-6-carbonitrile] |
| 0.4 nM | 1370 nM | 213 nM | Cc1nc2nc(SCc3csc(-c4ccc(Cl)cc4)n3)c(C#N)c(-c3ccc(OCCO)cc3)c2c(=O)[nH]1 [Example 10, 7-({[2-(4-Chlorophenyl)-1,3-thiazol-4-yl]methyl}thio)-5-[4-(2-hydroxyethoxy)phenyl]-2-methyl-4-oxo-3,4-dihydropyrido[2,3-d]pyrimidine-6-carbonitrile] |
| 2 nM | 2000 nM | 880 nM | N#Cc1c(SCc2csc(-c3ccc(Cl)cc3)n2)nc2[nH]c(=O)[nH]c(=O)c2c1-c1ccc(OCCO)cc1 [Example 12, 7-({[2-(4-Chlorophenyl)-1,3-thiazol-4-yl]methyl}sulfanyl)-5-[4-(2-hydroxyethoxy)phenyl]-2,4-dioxo-1,2,3,4-tetrahydropyrido[2,3-d]pyrimidine-6-carbonitrile] |
| 21 nM | – | 1250 nM | COC(=O)c1ccc(-c2nc(CSc3nc4c(c(-c5ccccc5)c3C#N)CCC4)cs2)cc1 [Example 13, Methyl 4-(4-{[(3-cyano-4-phenyl-6,7-dihydro-5H-cyclopenta[b]pyridin-2-yl)sulfanyl]methyl}-1,3-thiazol-2-yl)benzoate] |
